From patent US10292383B2, “Use of surface-reacted calcium carbonate as carrier for agrochemical compounds” (Omya International AG, priority 2015, dated 2019)

Test system: Plasmopara viticola
Assay: Field application trial against downy mildew on vineyard (PESSEV / PESINC assessment on leaves and bunches)
Assay type: in vivo
Conditions: between T2 (0.021 kg DM/ha) and T3 (0.21 kg DM/ha), both on leaves and bunches
Method: The application trials were carried out in Piedmont, Italy. In these trials, three different dosage rates of three of the above-mentioned samples (SRCC1-0.5 DM, SRCC1-5 DM, SRCC1-25 DM) were applied against downy mildew on vineyard and the efficacy and selectivity thereof was evaluated. In addition, the performance in comparison to commercially available fungicides was also evaluated. […]
The efficacy against Plasmopara viticola and the selectivity on the crop of the test products SRCC1-0.5 DM and SRCC1-5 DM both applied in mixture with tribasic copper sulfate (Cupravit Bio Evoluion WG), respectively, in treatments T2 and T3, were evaluated. […]
The efficacy of SRCC1-25 DM was also evaluated in treatment T4 and compared with the reference F50 sprayed in treatment T6. […]
In this trial according to the present invention, the disease pressure was assessed through two standard parameters: • (i) PESSEV=the pest severity (i.e. the intensity) determined as infected area per bunch or leaf in %; and • (ii) PESINC=the pest incidence (i.e. the frequency) determined in % of bunches and leaves infected. […]

Compound: COc1ccc(C(=CC(=O)N2CCOCC2)c2ccc(Cl)cc2)cc1OC [dimethomorph]
- dosage rate effect of active ingredient: significant dosage rate effect
